Experimental data published in patent EP0007672A1, “Isocyanoalkenes, process and useful intermediates for their preparation, pharmaceutical and fungicidal preparations containing those isocyanoalkenes and the use of the fungicidal preparations in agriculture” (GIST-BROCADES N.V., priority 1978, dated 1980).
≈ marks a conversion by molar mass, not a printed value. Read-outs that look alike come from different tables or passages of the source.

Legend:
Assay in all cases: MIC (Minimum Inhibitory Concentration)
Format in all cases: cell-based
Candida albicans = tested on: Candida albicans
Description: (§1) In addition they may be used for combatting plant diseases, in particular as fungicides. A list of MIC (Minimum Inhibitory Concentration) values for a number of microorganisms is listed herebelow. The figures in the column headings refer to the compounds prepared according to the experimental examples in comparison with the spectrum of 1-[2-(2,4-dichlorophenyl)-2-{(2,4-dichlorophenyl)-methoxy} -ethyl7-1H-imidazole (better known under the name of miconazole, c.f. Merck Index 9th Ed. page 6047) or natamycin (pimaricin, c.f. Merck Index 9th Ed. page 7233).

[1] = tested on: Trichophyton mentagrophytus
Description: as §1

[2] = tested on: Trichophyton schoenleinii; details: Trichophyton schoenleinii 435-63; read-out: MIC values
Description: as §1

Trichophyton rubrum = tested on: Trichophyton rubrum
Description: as §1

Trichophyton tonsurans = Trichophyton tonsurans 561-50; read-out: MIC values
Description: as §1

[3] = tested on: Streptococcus haemolyticus; details: Streptococcus haemolyticus A 1088; read-out: MIC values
Description: as §1

Trichophyton equinum = tested on: Trichophyton equinum
Description: as §1

Trichophyton quickeaneum = Trichophyton quickeaneum A 2040; read-out: MIC values
Description: as §1

Trichophyton verrucosum = tested on: Trichophyton verrucosum
Description: as §1

Pasteurella multocida = Pasteurella multocida A 723; read-out: MIC values
Description: as §1

Trichophyton violoceum = Trichophyton violoceum 442-62; read-out: MIC values
Description: as §1

[4] = Candida albicans A 7, read-out: MIC values
[5] = Candida albicans A 3140, read-out: MIC values
[6] = Candida albicans A 3141, read-out: MIC values
[7] = Candida albicans A 3142, read-out: MIC values
[8] = Candida albicans A 3143, read-out: MIC values
[9] = Candida albicans A 3144, read-out: MIC values
[10] = Candida albicans A 3145, read-out: MIC values
[11] = Candida albicans A 3165, read-out: MIC values
[12] = Candida albicans A 3166, read-out: MIC values
[13] = Candida albicans A 3167, read-out: MIC values
[14] = Candida albicans A 3168, read-out: MIC values
[15] = Candida albicans A 3169, read-out: MIC values
[16] = Candida albicans A 3171, read-out: MIC values
[17] = Candida albicans A 3184, read-out: MIC values
[18] = Candida albicans A 3190, read-out: MIC values
[19] = Candida albicans A 3191, read-out: MIC values
[20] = Candida albicans A 3192, read-out: MIC values
[21] = Candida albicans A 3194, read-out: MIC values
[22] = Candida albicans A 3196, read-out: MIC values
[23] = Trichophyton mentagrophytus 367-68, read-out: MIC values
[24] = Trichophyton mentagrophytus 421-67, read-out: MIC values
[25] = Trichophyton mentagrophytus A 3252, read-out: MIC values
[26] = Trichophyton mentagrophytus R 177, read-out: MIC values
[27] = Trichophyton mentagrophytus R 178, read-out: MIC values
[28] = Trichophyton rubrum 218-65, read-out: MIC values
[29] = Trichophyton rubrum 494-62, read-out: MIC values
[30] = Trichophyton rubrum A 810, read-out: MIC values
[31] = Trichophyton equinum 182-76, read-out: MIC values
[32] = Trichophyton equinum 441-51, read-out: MIC values
[33] = Trichophyton verrucosum 134-66, read-out: MIC values
[34] = Trichophyton verrucosum A 2922, read-out: MIC values

Row | MIC (Candida albicans; [4]) | MIC (Candida albicans; [5]) | MIC (Candida albicans; [6]) | MIC (Candida albicans; [7]) | MIC (Candida albicans; [8]) | MIC (Candida albicans; [9]) | MIC (Candida albicans; [10]) | MIC (Candida albicans; [11]) | MIC (Candida albicans; [12]) | MIC (Candida albicans; [13]) | MIC (Candida albicans; [14]) | MIC (Candida albicans; [15]) | MIC (Candida albicans; [16]) | MIC (Candida albicans; [17]) | MIC (Candida albicans; [18]) | MIC (Candida albicans; [19]) | MIC (Candida albicans; [20]) | MIC (Candida albicans; [21]) | MIC (Candida albicans; [22]) | MIC [1, 23] | Structure (SMILES) | other results
1 | 0.75 µg/mL (≈ 2.47 µM) | 1.5 µg/mL (≈ 4.94 µM) | 1.5 µg/mL (≈ 4.94 µM) | 1.5 µg/mL (≈ 4.94 µM) | 1.5 µg/mL (≈ 4.94 µM) | 1.5 µg/mL (≈ 4.94 µM) | 3 µg/mL (≈ 9.89 µM) | 1.5 µg/mL (≈ 4.94 µM) | 1.5 µg/mL (≈ 4.94 µM) | 1.5 µg/mL (≈ 4.94 µM) | 3 µg/mL (≈ 9.89 µM) | 1.5 µg/mL (≈ 4.94 µM) | 1.5 µg/mL (≈ 4.94 µM) | 1.5 µg/mL (≈ 4.94 µM) | 1.5 µg/mL (≈ 4.94 µM) | 3 µg/mL (≈ 9.89 µM) | 1.5 µg/mL (≈ 4.94 µM) | 3 µg/mL (≈ 9.89 µM) | 1.5 µg/mL (≈ 4.94 µM) | 100 µg/mL (≈ 330 µM) | [C-]#[N+]C(=C(C)c1cccs1)S(=O)(=O)c1ccc(C)cc1 [Example 17, 1-isocyano-1-(4-toluenesulphonyl)-2-(2-thienyl)-1-propene] | MIC [1, 24]: > 100 µg/mL; MIC [1, 25]: 6 µg/mL (≈ 19.8 µM); MIC [1, 26]: > 100 µg/mL; MIC [1, 27]: > 100 µg/mL; MIC [2]: 3 µg/mL (≈ 9.89 µM); MIC (Trichophyton rubrum; [28]): 6 µg/mL (≈ 19.8 µM); MIC (Trichophyton rubrum; [29]): 6 µg/mL (≈ 19.8 µM); MIC (Trichophyton rubrum; [30]): 12.5 µg/mL (≈ 41.2 µM); MIC (Trichophyton tonsurans): < 0.4 µg/mL; MIC [3]: 6 µg/mL (≈ 19.8 µM); MIC (Trichophyton equinum; [31]): > 100 µg/mL; MIC (Trichophyton equinum; [32]): 0.75 µg/mL (≈ 2.47 µM); MIC (Trichophyton quickeaneum): 6 µg/mL (≈ 19.8 µM); MIC (Trichophyton verrucosum; [33]): 0.75 µg/mL (≈ 2.47 µM); MIC (Trichophyton verrucosum; [34]): 0.4 µg/mL (≈ 1.32 µM); MIC (Pasteurella multocida): 3 µg/mL (≈ 9.89 µM); MIC (Trichophyton violoceum): 3 µg/mL (≈ 9.89 µM)
2 | 6 µg/mL (≈ 17.7 µM) | 6 µg/mL (≈ 17.7 µM) | 6 µg/mL (≈ 17.7 µM) | 6 µg/mL (≈ 17.7 µM) | 6 µg/mL (≈ 17.7 µM) | > 100 µg/mL | 6 µg/mL (≈ 17.7 µM) | 6 µg/mL (≈ 17.7 µM) | 6 µg/mL (≈ 17.7 µM) | 50 µg/mL (≈ 147 µM) | 6 µg/mL (≈ 17.7 µM) | 3 µg/mL (≈ 8.84 µM) | 3 µg/mL (≈ 8.84 µM) | 50 µg/mL (≈ 147 µM) | 6 µg/mL (≈ 17.7 µM) | > 100 µg/mL | 6 µg/mL (≈ 17.7 µM) | 6 µg/mL (≈ 17.7 µM) | 100 µg/mL (≈ 295 µM) | > 100 µg/mL | [C-]#[N+]C(=C(CCCC)c1ccccc1)S(=O)(=O)c1ccc(C)cc1 [Example 19, 2-phenyl-1-isocyano-1-(4-toluenesulphonyl)-1-hexene] | MIC [1, 24]: > 100 µg/mL; MIC [1, 25]: > 100 µg/mL; MIC [1, 26]: > 100 µg/mL; MIC [1, 27]: > 100 µg/mL; MIC [2]: > 100 µg/mL; MIC (Trichophyton rubrum; [28]): > 100 µg/mL; MIC (Trichophyton rubrum; [29]): > 100 µg/mL; MIC (Trichophyton rubrum; [30]): > 100 µg/mL; MIC (Trichophyton tonsurans): 0.4 µg/mL (≈ 1.18 µM); MIC [3]: > 100 µg/mL; MIC (Trichophyton equinum; [31]): > 100 µg/mL; MIC (Trichophyton equinum; [32]): 3 µg/mL (≈ 8.84 µM); MIC (Trichophyton quickeaneum): > 100 µg/mL; MIC (Trichophyton verrucosum; [33]): 3 µg/mL (≈ 8.84 µM); MIC (Trichophyton verrucosum; [34]): 3 µg/mL (≈ 8.84 µM); MIC (Pasteurella multocida): > 100 µg/mL; MIC (Trichophyton violoceum): > 100 µg/mL
3 | 50 µg/mL (≈ 144 µM) | 6 µg/mL (≈ 17.3 µM) | 25 µg/mL (≈ 71.9 µM) | 25 µg/mL (≈ 71.9 µM) | 50 µg/mL (≈ 144 µM) | 100 µg/mL (≈ 288 µM) | 25 µg/mL (≈ 71.9 µM) | 50 µg/mL (≈ 144 µM) | 25 µg/mL (≈ 71.9 µM) | > 100 µg/mL | 100 µg/mL (≈ 288 µM) | 25 µg/mL (≈ 71.9 µM) | 50 µg/mL (≈ 144 µM) | 50 µg/mL (≈ 144 µM) | 50 µg/mL (≈ 144 µM) | > 100 µg/mL | 50 µg/mL (≈ 144 µM) | 50 µg/mL (≈ 144 µM) | 50 µg/mL (≈ 144 µM) | > 100 µg/mL | [C-]#[N+]C(=C(CCCCC)CCCCC)S(=O)(=O)c1ccc(C)cc1 [Example 26, 1-isocyana-2-pentyl-1-(4-toluenesulphonyl)-1-heptene] | MIC [1, 24]: 100 µg/mL (≈ 288 µM); MIC [1, 25]: > 100 µg/mL; MIC [1, 26]: > 100 µg/mL; MIC [1, 27]: > 100 µg/mL; MIC ([1]; Trichophyton mentagrophytus RRL 305, read-out: MIC values): > 100 µg/mL; MIC [2]: 100 µg/mL (≈ 288 µM); MIC (Trichophyton rubrum; [28]): 100 µg/mL (≈ 288 µM); MIC (Trichophyton rubrum; [29]): 100 µg/mL (≈ 288 µM); MIC (Trichophyton rubrum; [30]): 50 µg/mL (≈ 144 µM); MIC (Trichophyton tonsurans): 100 µg/mL (≈ 288 µM); MIC [3]: > 100 µg/mL; MIC (Trichophyton equinum; [31]): > 100 µg/mL; MIC (Trichophyton equinum; Trichophyton equinum 856-71, read-out: MIC values): 50 µg/mL (≈ 144 µM); MIC (Trichophyton quickeaneum): > 100 µg/mL; MIC (Pasteurella multocida): 100 µg/mL (≈ 288 µM); MIC (Trichophyton violoceum): 100 µg/mL (≈ 288 µM)
